Experiments:
guinea pig eosinophils = assay: Inhibitory action on eosinophils (release of active oxygen from guinea pig eosinophils); type: cell-based; conditions: Cavia porcellus, Eosinophil, 5 min, PAF, luminol chemiluminescence for 5 minutes
Description: Inhibitory activity on eosinophil activation
(A) Preparation of eosinophils
Polymyxin B (produced by Sigma) was administered intraperitoneally into a guinea pig (Hartley, male, 6-week-old) at a dosage of 1 mg once every week for 6 to 8 weeks. After the final administration of polymyxin B. 50 ml of PBS (phosphate-buffered saline) was injected into the intraperitoneal cavity of the guinea pig, and cells were recovered. The cells were centrifuged at 800 rpm for 5 minutes and the abdomen infiltration cells were collected as precipitates and then suspended in 1 ml of 40% Ficoll (40% Ficoll (produced by Pharmacia), HBSS (Hanks' balanced salt solution) and layered on a Ficoll discontinuous density gradient (40 to 90%). It was centrifuged at 1500 rpm for 40 minutes, and the eosinophil fraction was recovered. In this operation, eosinophils of 99% or more purity were usually obtained. Further, the cells were washed twice with RPMI 1640 medium (10% BSA (bovine serum albumin available from Boehringer Mannheim), suspended again at a predetermined density, and used in the objective experiment.
(B) Inhibitory action on eosinophils (inhibitory action on release of active oxygen from guinea pig eosinophils)
The eosinophils (99% or more purity) obtained by the Ficoll density gradient method in (A) above were suspended at a cell density of 4×10^5 in a buffer solution (0.136 M sodium chloride, 2.7 mM potassium chloride, 1.8 mM calcium chloride, 1.0 mM magnesium chloride, 11.9 mM sodium hydrogen carbonate, 5.5 mM D-glucose, 5.0 mM HEPES, 0.36 mM sodium dihydrogen phosphate, pH 7.2). Each drug (2 μl) and 180 μl of the cell suspension were put to a 96-well multi-well plate (for chemiluminescence measurement, white type) previously kept at 37° C., and incubated at 37° C. for 10 minutes. After incubation, 20 μl of PAF (platelet-activating factor) (5×10^-6 M) and 20 μl of a luminol solution were added to it and immediately examined for its chemiluminescence (Luminoskan Labosystem). The chemiluminescence for 5 minutes were measured to calculate 50% inhibitory concentration (IC50: μM).

rat chymase = target: T1, rat chymase (Rattus norvegicus, UniProt P09650); assay: Inhibitory activity on rat chymase (synthetic substrate); type: biochemical; conditions: substrate succinyl leucyl leucyl valyl tyrosyl methylcoumarylamide; pH 8.0, 37° C., 15 min; read-out: Rat Chymase (IC50: nM), 50% inhibitory concentration
T1 construct: 50 g rat tongue was finely divided by scissors and a scalpel; from tissue; host or cells: rat tongue
T1 sequence (P09650 21-260): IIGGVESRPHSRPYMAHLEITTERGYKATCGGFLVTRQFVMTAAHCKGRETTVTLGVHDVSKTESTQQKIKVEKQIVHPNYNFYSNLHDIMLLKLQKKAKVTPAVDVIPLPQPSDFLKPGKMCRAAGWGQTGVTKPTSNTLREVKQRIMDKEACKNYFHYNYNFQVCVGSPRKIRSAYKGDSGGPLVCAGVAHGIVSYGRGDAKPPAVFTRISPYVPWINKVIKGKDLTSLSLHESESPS
Description: In the present invention, chymase was purified by the methods described in these literatures, and the present compounds were examined for inhibitory activity on chymase, inhibitory action on activation of mast cells and eosinophils, and pharmacological action in animals. Hereinafter, specific methods are described. […] 50 g rat tongue was finely divided by scissors and a scalpel, suspended in 0.1 M phosphate buffer (pH 8.0), and disrupted by a Polytron homogenizer for 5 minutes to prepare a crude chymase enzyme solution. […] The supernatant was applied to an octyl Sepharose 4B column (40×100 mm) previously equilibrated with 0.1 M phosphate buffer (pH 8.0) containing 2 M sodium chloride and 5% ammonium sulfate, and the protein was eluted with a linear concentration gradient of from 2 M to 0 M sodium chloride. […] (D) Measurement of inhibitory activity on chymase (a) Measurement using the synthetic substrate The synthetic chymase substrate was used for measurement of the inhibitory activity on the rat chymase as a subtrate, and the fluorescence of formed aminomethylcoumarin after reaction was measured by a spectrophotometer. […] The test was conducted several times. Chymase was prepared for each test in the manner described above. The compounds examined were compounds prepared in the above-described examples. […] Succinyl leucyl leucyl valyl tyrosyl methylcoumarylamide (for rat […] angiotensin I (for human and dog chymase)

rat mast cells = assay: Inhibitory action on degranulation of mast cells (histamine release from rat mast cells); type: cell-based; conditions: Mast cell; rat peritoneal mast cells, anti-IgE antibody, 37° C.
Description: Inhibitory action on degranulation of mast cells
(A) Preparation of mast cells
30 ml of mast cell buffer solution (150 mM sodium chloride, 3.7 mM potassium chloride, 3.0 mM disodium hydrogen phosphate, 3.5 mM sodium dihydrogen phosphate, 5.6 mM dextrose, pH 7.0) was injected into the abdomen of a rat(SD, male, 8 to 10 week-old), and intra peritoneal cavity cells were recovered and centrifuged at 800 rpm for 5 minutes, and then the abdomen infiltration cells were recovered as precipitates. The precipitated cells were further washed twice with the mast cell buffer solution, suspended again at a predetermined density, and used in the objective experiment.
(B) Inhibitory action on degranulation of mast cells (inhibitory action on histamine release from rat mast cells)
The mast cells obtained in the procedure in (A) above were suspended at 1×10^5 cells in the mast cell buffer solution and kept at 37° C. 2 μl of each drug and 200 μl of the cell suspension were added into a 1.5 ml test tube previously kept at 37° C. and incubated at 37° C. for 10 minutes. After incubation, 2 μl anti-IgE antibody (BETHYL Lab. Inc.) was added to it and further incubated at 37° C. for 15 minutes. After the end of the reaction, the reaction mixture was immediately cooled on ice and centrifuged at 4° C. at 4000 rpm for 5 minutes, and then the supernatant was stored. Histamine in the supernatant was modified with ortho-phthalaldehyde and measured by high performance liquid chromatography to determine 50% inhibitory concentration (IC50: μM).

Row | SMILES | IC50 (guinea pig eosinophils) [µM] | IC50 (rat chymase) [nM] | IC50 (rat mast cells) [µM]
1 | CN1CCN(C(=O)CCCC(=O)C(=O)C(Cc2cccc(F)c2)NC(=O)Cn2c(-c3ccccc3)ncc(N)c2=O)CC1 (stereo not shown) [Compound 69] | 2.5 | 54 | 
2 | Nc1cnc(-c2ccccc2)n(CC(=O)NC(Cc2ccccc2)C(=O)C(=O)CCCN2CCOCC2)c1=O (stereo not shown) [Compound 71, 2-(5-Amino-6-oxo-2-phenyl-1,6-dihydropyrimidine-1-yl)-N-{2,3-dioxo-6-(4-morpholine-4-yl)-1-phenylmethyl}hexylacetamide] | 2.6 |  | 13
